According to patent publication EP4635950A1, “NOVEL CRYSTAL FORM OF GLP-1 RECEPTOR AGONIST, METHOD FOR PREPARING SAME, PHARMACEUTICAL COMPOSITION THEREOF, AND USE THEREOF” (Hangzhou Zhongmeihuadong Pharmaceutical Co., Ltd., priority 2022, dated 2024):
Converted amounts (≈) assume the structure as drawn. One block for each compound: values may come before it.

Assays:
[1] = target: T1, Human GLP-1R (Homo sapiens, UniProt P43220); experiment: GLP-1R agonistic activity, HTRF cAMP assay in 293A GFP-GLP-1R cells; type: cell-based; details: cAMP pathway
T1 construct: expressed in transfected cells; host or cells: 293A cells stably expressing GLP-1R-GFP
T1 sequence (P43220 24-463): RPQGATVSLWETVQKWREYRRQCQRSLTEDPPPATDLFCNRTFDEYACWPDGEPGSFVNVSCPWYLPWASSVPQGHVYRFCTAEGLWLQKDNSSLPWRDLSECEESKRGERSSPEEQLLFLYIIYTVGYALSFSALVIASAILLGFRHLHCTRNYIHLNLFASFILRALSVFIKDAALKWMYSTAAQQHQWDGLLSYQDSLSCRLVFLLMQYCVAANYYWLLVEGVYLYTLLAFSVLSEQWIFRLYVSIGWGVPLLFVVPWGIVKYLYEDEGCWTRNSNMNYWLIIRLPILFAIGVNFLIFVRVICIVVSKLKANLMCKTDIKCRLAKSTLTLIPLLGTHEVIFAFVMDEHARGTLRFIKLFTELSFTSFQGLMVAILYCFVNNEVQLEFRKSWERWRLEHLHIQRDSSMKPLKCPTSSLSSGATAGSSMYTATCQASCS
Text: The method was a competitive immunoassay.

[2] = High-temperature stability at 60°C (HPLC purity, crystal form); type: physicochemical; details: for Purity (% Area) / purity decrease: 60°C
Text: [table] […] Table E-4: Results of High-Temperature Stability Determination

[3] = High-humidity stability at 90% RH (HPLC purity, crystal form); type: physicochemical; details: for Purity (% Area) / purity decrease: 90% RH
Text: [table] […] Table E-5: Results of High-Humidity Stability Determination

[4] = Equilibrium solubility, 24 hours at 37°C in 4 media, with XRPD of residual solid; type: physicochemical; details: for Crystal Form: XRPD
Procedure: After 24 hours, samples were taken and centrifuged for separation. The obtained solids were tested by XRPD, and the supernatants were filtered for solubility testing.

[5] = Pressure stability at 1000 Mpa for 5 minutes (HPLC purity, crystal form); type: physicochemical
Text: [table] […] Table E-6: Results of Pressure Stability Determination

[6] = Suspension competition test of Crystal Form A and Crystal Form G; type: physicochemical; details: Crystal Form A and Crystal Form G in EtOH and a mixture of MeOH and water, room temperature and 50°C
[7] = Solid-state stability under long-term and accelerated conditions (HPLC purity, crystal form); type: physicochemical; details: for Purity (% Area) / purity decrease: 10 days
Text: [table] […] Table E-3: Results of Solid-State Stability Determination

[8] = Hygroscopicity by dynamic vapor sorption (DVS) at 25°C; type: physicochemical
[9] = Crystal form stability on drying or sealed storage; type: physicochemical; details: dried at 50°C for 3 hours
Text: The 4 metastable crystal forms described in Example 4 had lower crystal form stability than each crystal form described in Example 3.

- agonistic effect on GLP-1R [1]: strong agonistic effect
Structure (SMILES): O=C(O)c1ccc2nc(CN3CCC(c4cccc(OCc5ccc(C6COC6)cc5F)n4)CC3)n(C[C@@H]3CCO3)c2c1 [Compound 1, (S)-2-((4-(6-((2-fluoro-4-(oxetan-3-yl)benzyl)oxy)pyridin-2-yl)piperidin-1-yl)methyl)-1-(oxetan-2-ylmethyl)-1H-benzo[d]imidazole-6-carboxylic acid]

- Purity (% Area) ([2]; 1 day): 97.55 % Area
- purity decrease ([2]; 1 day): about 0.3%
- Purity (% Area) ([2]; 10 days): 96.63 % Area
- purity decrease ([2]; 10 days): about 1.2%
- Initial Purity (% Area) ([2]; initial, before storage): 97.81 % Area
- Purity (% Area) ([3]; 1 Day): 97.67 % Area
- purity decrease ([3]; 1 day): about 0.1%
- Purity (% Area) ([3]; 10 days): 96.53 % Area
- purity decrease ([3]; 10 days): about 1.3%
- Initial Purity (% Area) ([3]; initial, before storage): 97.81 % Area
- Whether the Crystal Form Changed ([4]; 24 h in FaSSGF): YES
- Solubility after 24 h ([4]; FaSSGF): <10 µg/mL
- Solubility after 24 h ([4]; FaSSIF): 80 µg/mL (≈ 136 µM)
- Solubility after 24 h ([4]; FeSSIF): 270 µg/mL (≈ 460 µM)
- Crystal Form ([4]; solid after 24 h in FaSSGF): a hydrochloride salt was formed
- Crystal Form ([4]; solid after 24 h in FaSSIF): Crystal Form G
- Crystal Form ([4]; solid after 24 h in FeSSIF): Crystal Form G
- Crystal Form ([4]; solid after 24 h in H2O): Crystal Form G
- Purity (% Area) ([5]; 1000 Mpa, 5 min): 97.65 % Area
- purity decrease ([5]; 1000 Mpa, 5 min): about 0.2%
- Initial Purity (% Area) ([5]; initial, before pressing): 97.81 % Area
- outcome of suspension competition test [6]: thermodynamically more stable
- Purity (% Area) ([7]; 25°C/60%RH): 97.37 % Area
- Purity (% Area) ([7]; 40°C/75%RH): 97.43 % Area
- purity decrease ([7]; accelerated conditions (40°C/75% RH)): about 0.4%
- crystal form change ([7]; before and after testing, long-term and accelerated conditions): no crystal form change was observed
- Initial Purity (% Area) ([7]; initial, before storage): 97.81 % Area
- purity decrease ([7]; long-term conditions (25°C/60% RH)): about 0.4%
- Sample Weight Change at 80% RH (%) [8]: 0.73%
- crystal form change after drying [9]: no crystal form change is observed
Structure (SMILES): O=C(O)c1ccc2nc(CN3CCC(c4cccc(OCc5ccc(C6COC6)cc5F)n4)CC3)n(C[C@@H]3CCO3)c2c1 [Crystal Form G, (S)-2-((4-(6-((2-fluoro-4-(oxetan-3-yl)benzyl)oxy)pyridin-2-yl)piperidin-1-yl)methyl)-1-(oxetan-2-ylmethyl)-1H-benzo[d]imidazole-6-carboxylic acid]
